± gives the expanded uncertainty stated by the source.
Experiment: cn = amount concentration of the nth substance listed, in mol/dm3

CCCCCCCCCCCCn1cc[n+](C)c1.[Br-] [1-dodecyl-3-methylimidazolium bromide] + O
surface tension liquid-gas [mN/m]
Conditions	c1 = 0.0001	c1 = 0.0005	c1 = 0.0015	c1 = 0.005	c1 = 0.01	c1 = 0.02	c1 = 0.03	c1 = 0.04	c1 = 0.05
278.15 K	64.79 ± 3.2	61.21 ± 3.1	56.82 ± 2.9	45.33 ± 2.3	37.64 ± 2	37.72 ± 2	37.73 ± 2	37.53 ± 2	37.59 ± 2
288.15 K	62.93 ± 3.1	60.86 ± 3	56.68 ± 2.9	44.27 ± 2.3	37.52 ± 2	37.63 ± 2	37.41 ± 2	37.77 ± 2	37.61 ± 2
298.15 K	62.21 ± 3.1	59.84 ± 3	55.19 ± 2.8	43.81 ± 2.3	37.45 ± 2	37.41 ± 2	37.15 ± 2	37.23 ± 2	37.26 ± 2
308.15 K	60.48 ± 3	58.62 ± 2.9	55.18 ± 2.8	44.47 ± 2.3	37.18 ± 2	37.55 ± 2	37.38 ± 2	37.42 ± 2	37.23 ± 2
318.15 K	58.84 ± 2.9	56.56 ± 2.9	53.88 ± 2.7	43.89 ± 2.3	36.92 ± 2	37.12 ± 2	37.47 ± 2	37.3 ± 2	37.06 ± 2
328.15 K	57.61 ± 2.9	55.07 ± 2.8	50.63 ± 2.6	42.36 ± 2.2	37.64 ± 2	37.03 ± 2	37.16 ± 2	37.06 ± 2	37.09 ± 2

CCCCCCCCCCCCCCCCn1cc[n+](C)c1.[Br-] [1-hexadecyl-3-methylimidazolium bromide] + O
surface tension liquid-gas [mN/m]
Conditions	278.15 K	288.15 K	298.15 K	308.15 K	318.15 K	328.15 K
c1 = 5e-06	69.16 ± 3.4	66.26 ± 3.3	63.93 ± 3.2	61.53 ± 3.1	58.5 ± 2.9	55.05 ± 2.8
c1 = 2e-05	63.91 ± 3.2	61.84 ± 3.1	60 ± 3	58.48 ± 2.9	54.53 ± 2.8	51.85 ± 2.6
c1 = 0.0001	56.17 ± 2.8	52.62 ± 2.7	51.14 ± 2.6	49.46 ± 2.5	47.36 ± 2.4	45.42 ± 2.3
c1 = 0.0002	50.9 ± 2.6	48.63 ± 2.5	46.77 ± 2.4	45.39 ± 2.3	42.7 ± 2.2	42.13 ± 2.2
c1 = 0.0003	46.66 ± 2.4	43.95 ± 2.3	43.38 ± 2.2	41.17 ± 2.1	39.84 ± 2.1	39.44 ± 2.1
c1 = 0.0004	42.78 ± 2.2	41.32 ± 2.2	39.38 ± 2.1	38.02 ± 2	37.93 ± 2	38 ± 2
c1 = 0.0005	39.25 ± 2.1	37.45 ± 2	37.26 ± 2	36.21 ± 1.9	36.75 ± 1.9	37.07 ± 2
c1 = 0.0008	38.25 ± 2	37.54 ± 2	37.37 ± 2	36.14 ± 1.9	36.11 ± 1.9	36.2 ± 1.9
c1 = 0.0011	38.38 ± 2	37.4 ± 2	37.09 ± 2	36.28 ± 1.9	36.18 ± 1.9	36.25 ± 1.9
c1 = 0.002	38.11 ± 2	37.87 ± 2	37.19 ± 2	36.97 ± 2	36.12 ± 1.9	36.15 ± 1.9
c1 = 0.004	37.61 ± 2	37.33 ± 2	37.21 ± 2	36.37 ± 1.9	36.04 ± 1.9	35.98 ± 1.9

CCCCCCCCCCCCCCn1cc[n+](C)c1.[Br-] [1-methyl-3-tetradecylimidazolium bromide] + O
surface tension liquid-gas [mN/m]
Conditions	c1 = 5e-05	c1 = 0.0001	c1 = 0.0003	c1 = 0.0005	c1 = 0.001	c1 = 0.002	c1 = 0.004	c1 = 0.006	c1 = 0.008	c1 = 0.01
278.15 K	64.69 ± 3.2	64.07 ± 3.2	61.72 ± 3.1	55.17 ± 2.8	50.32 ± 2.6	41.28 ± 2.2	38.44 ± 2	38.68 ± 2	38.88 ± 2.1	38.88 ± 2.1
288.15 K	62.69 ± 3.1	62.07 ± 3.1	59.72 ± 3	53.17 ± 2.7	48.32 ± 2.5	40.28 ± 2.1	37.94 ± 2	38.18 ± 2	38.38 ± 2	38.38 ± 2
298.15 K	61.26 ± 3.1	60.88 ± 3	57.1 ± 2.9	52.79 ± 2.7	47.37 ± 2.4	39.48 ± 2.1	37.81 ± 2	37.73 ± 2	37.57 ± 2	37.57 ± 2
308.15 K	59.5 ± 3	58.59 ± 2.9	54.93 ± 2.8	51.51 ± 2.6	45.26 ± 2.3	39.15 ± 2.1	37.81 ± 2	37.51 ± 2	37.67 ± 2	37.6 ± 2
318.15 K	57.16 ± 2.9	55.92 ± 2.8	52.9 ± 2.7	49.56 ± 2.5	43.88 ± 2.3	39.15 ± 2.1	37.12 ± 2	37.13 ± 2	37.12 ± 2	37.13 ± 2
328.15 K	54.16 ± 2.7	52.7 ± 2.7	50.17 ± 2.6	46.39 ± 2.4	42.75 ± 2.2	38.28 ± 2	36.2 ± 1.9	36.32 ± 1.9	36.58 ± 1.9	36.45 ± 1.9
